≈ marks a conversion by molar mass, not a printed value. Where two headings read alike, the source gives them in different places.
What was measured:
[1] = tested on: CHO-K1 cells; assay: in vitro; assay type: cell-based; settings: Chinese hamster, 24 h
[2] = tested on: gram negative bacteria; assay: In vitro anti-bacterial activity assay (broth dilution MIC), gram negative bacteria; assay type: cell-based, E. coli
Summary of the method: (§1)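 Broth dilution MIC following CLSI M7-A2: compounds serially diluted, log-phase test strains added to final ~5×10^5 CFU/ml, incubated ~18 hours at 35° C in ambient air. Plates read on microplate reader or visually; MIC is lowest concentration inhibiting growth.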

[3] = tested on: gram positive bacteria; assay: In vitro anti-bacterial activity assay (broth dilution MIC), gram positive bacteria; assay type: cell-based, S. aureus; settings: for MIC: 18 h
Summary of the method: as §1

[4] = tested on: 3T3 fibroblast cells; assay: In vitro phototoxicity assay (neutral red; UV light-treated vs dark control plates); assay type: cell-based; settings: for Photo Toxicity UV Tox50: UV light 50 minutes; for Photo Toxicity Dark Tox50: dark control plate
Summary of the method: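 Neutral red viability readout (A535 after EtOH/acetic acid extraction) compares paired plates: one exposed 50 min to UV at 1.6–1.8 mW/cm^2, one held in darkness, both dosed with compound in HBSS and recovered overnight. 3T3 fibroblast cells used; phototoxicity taken as the difference.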

[5] = in vitro; assay type: cell-based; settings: Chinese hamster, Cytotox. CHO-K1
[6] = Mammalian cytotoxicity assay (resazurin), COS-1 cells; assay type: cell-based; settings: African green monkey, read-out: Cytotox. COS-1
Summary of the method: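 Cells seeded overnight at 37° C., 5% CO2, then exposed to serial compound dilutions for 24 hours. Medium replaced with resazurin (0.042 mg/ml in PBS with Ca and Mg) for 2 hours plus 30 minutes dark at room temperature; fluorescence read at ex 535/em 590 nm, IC50 taken as 50% growth inhibition.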

[7] = Escherichia coli, 18 h, E. coli D1 209, read-out: Median MIC's G− E. coli D1 209
[8] = Escherichia coli, 18 h, E. coli MG 1655, read-out: Median MIC's G− E. coli MG 1655
[9] = Escherichia coli, ATCC25922, 18 h, E. coli ATCC 25922, read-out: Median MIC's G− E. coli ATCC 25922
[10] = Pseudomonas aeruginosa, 18 h, P. aeruginosa K201 PAO6609, read-out: Median MIC's G− P. aeruginosa K201 PAO6609
[11] = Staphylococcus aureus, S. aureus MRSA5, read-out: Median MIC's G+ S. aureus MRSA5
[12] = Staphylococcus aureus, S. aureus RN450, read-out: Median MIC's G+ S. aureus RN450
[13] = Streptococcus pneumoniae, S. pneumoniae 157E-Strep, read-out: Median MIC's G+ S. pneumoniae 157E-Strep

Compound | MIC [2, 7] [µg/mL] | MIC [2, 8] [µg/mL] | MIC [2, 9] [µg/mL] | MIC [2, 10] [µg/mL] | MIC [3, 11] [µg/mL] | MIC [3, 12] [µg/mL] | MIC [3, 13] [µg/mL] | Photo Toxicity UV Tox50 [4] [µM] | Photo Toxicity Dark Tox50 [4] [µM] | IC50 at 24 h [5] [µM] | IC50 at 24 h [6] [µM] | other results
CN(C)CCCNC(=O)c1cccc(-c2ccc(O)c3c2C[C@H]2C[C@H]4[C@H](N(C)C)C(O)=C(C(N)=O)C(=O)[C@@]4(O)C(O)=C2C3=O)c1 [J] | 64 (≈ 103 µM) | 32 (≈ 51.7 µM) | 32 (≈ 51.7 µM) | 64 (≈ 103 µM) | 64 (≈ 103 µM) | 1 (≈ 1.62 µM) | 1 (≈ 1.62 µM) | >130.13 | >130.13 |  |  | IC50 [1]: > 40.3 µM
CN(C)CCCNC(=O)c1cccc(-c2ccc(O)c3c2C[C@H]2C[C@H]4[C@@H](N(C)C)C(O)=C(C(N)=O)C(=O)[C@@]4(O)C(O)=C2C3=O)c1 [P] | 64 (≈ 103 µM) | 64 (≈ 103 µM) | 64 (≈ 103 µM) | 64 (≈ 103 µM) | 64 (≈ 103 µM) | 4 (≈ 6.47 µM) | 8 (≈ 12.9 µM) | >122.9 | >122.9 | > 123 | > 123 | 
CN(C)CCCNC(=O)c1cccc(-c2ccc(O)c3c2C[C@H]2C[C@H]4[C@H](N(C)C)C(O)=C(C(N)=O)C(=O)[C@@]4(O)C(O)=C2C3=O)c1 [Q] |  |  |  |  |  |  |  | >137.36 | >137.36 |  |  | IC50 [1]: > 137 µM; Median MIC's G− E. coli ATCC 25922 ([2]; E. coli ATCC 25922): 64 µg/mL; Median MIC's G− E. coli D1 209 ([2]; E. coli D1 209): 64 µg/mL; Median MIC's G− E. coli MG 1655 ([2]; E. coli MG 1655): 64 µg/mL; Median MIC's G− P. aeruginosa K201 PAO6609 ([2]; P. aeruginosa K201 PAO6609): 64 µg/mL; Median MIC's G+ S. aureus MRSA5 ([3]; S. aureus MRSA5): 64 µg/mL; Median MIC's G+ S. aureus RN450 ([3]; S. aureus RN450): 2 µg/mL; Median MIC's G+ S. pneumoniae 157E-Strep ([3]; S. pneumoniae 157E-Strep): 1 µg/mL
CN(C)CCN(C)C(=O)c1cccc(-c2ccc(O)c3c2C[C@H]2C[C@H]4[C@H](N(C)C)C(O)=C(C(N)=O)C(=O)[C@@]4(O)C(O)=C2C3=O)c1 [R] |  |  |  |  | 64 (≈ 103 µM) | 0.5 (≈ 0.808 µM) | 0.25 (≈ 0.404 µM) | >137.36 | >137.36 | > 137 | > 137 | MIC ([2]; Escherichia coli, 18 h, read-out: Median MIC's G− E. coli D1 209, E. coli D1 209): 64 µg/mL (≈ 103 µM); MIC ([2]; Escherichia coli, 18 h, read-out: Median MIC's G− E. coli MG 1655, E. coli MG 1655): 15 µg/mL (≈ 24.2 µM); MIC ([2]; Escherichia coli, ATCC25922, 18 h, read-out: Median MIC's G− E. coli ATCC 25922, E. coli ATCC 25922): 32 µg/mL (≈ 51.7 µM); MIC ([2]; Pseudomonas aeruginosa, 18 h, read-out: Median MIC's G− P. aeruginosa K201 PAO6609, P. aeruginosa K201 PAO6609): 64 µg/mL (≈ 103 µM)
CC(=O)NCCNC(=O)c1cccc(-c2ccc(O)c3c2C[C@H]2C[C@H]4[C@H](N(C)C)C(O)=C(C(N)=O)C(=O)[C@@]4(O)C(O)=C2C3=O)c1 [S] | 64 (≈ 103 µM) | 64 (≈ 103 µM) | 64 (≈ 103 µM) | 64 (≈ 103 µM) | 32 (≈ 51.7 µM) | 2 (≈ 3.23 µM) | 2 (≈ 3.23 µM) | >129.75 | >129.75 | > 13 | > 13 | 
CC(C)N(CCNC(=O)c1cccc(-c2ccc(O)c3c2C[C@H]2C[C@H]4[C@H](N(C)C)C(O)=C(C(N)=O)C(=O)[C@@]4(O)C(O)=C2C3=O)c1)C(C)C [T] | 8 (≈ 12.1 µM) | 16 (≈ 24.2 µM) | 4 (≈ 6.05 µM) | 64 (≈ 96.9 µM) | 4 (≈ 6.05 µM) | 0.13 (≈ 0.197 µM) | 0.06 (≈ 0.0908 µM) | >133.57 | >133.57 | 36.2 | > 41.4 | 
CN(C)[C@@H]1C(O)=C(C(N)=O)C(=O)[C@@]2(O)C(O)=C3C(=O)c4c(O)ccc(-c5cccc(C(=O)NCCN6CCCCC6)c5)c4C[C@H]3C[C@@H]12 [U] | 8 (≈ 12.4 µM) | 4 (≈ 6.2 µM) | 4 (≈ 6.2 µM) | 64 (≈ 99.3 µM) | 8 (≈ 12.4 µM) | 0.25 (≈ 0.388 µM) | 0.06 (≈ 0.0931 µM) | >132.37 | >132.37 | > 41 | > 41 | 
CN(C)CCNC(=O)c1cccc(-c2cc(N(C)C)c3c(c2O)C(=O)C2=C(O)[C@]4(O)C(=O)C(C(N)=O)=C(O)[C@@H](N(C)C)[C@@H]4C[C@@H]2C3)c1 [V, (4S,4aS,5aR,12aS)-4,7-Bis-dimethylamino-9-[3-(2-dimethylamino-ethylcarbamoyl)-phenyl]-3,10,12,12a-tetrahydroxy-1,11-dioxo-1,4,4a,5,5a,6,11,12a-octahydro-naphthacene-2-carboxylic acid amide] | 64 (≈ 98.8 µM) | 64 (≈ 98.8 µM) | 64 (≈ 98.8 µM) | 64 (≈ 98.8 µM) | 64 (≈ 98.8 µM) | 16 (≈ 24.7 µM) | 32 (≈ 49.4 µM) | >125.47 | >125.47 | > 125 | > 125 | 
CN(C)[C@@H]1C(O)=C(C(N)=O)C(=O)[C@@]2(O)C(O)=C3C(=O)c4c(O)ccc(-c5cccc(C(=O)NCc6ccco6)c5)c4C[C@H]3C[C@@H]12 [Y] | 64 (≈ 104 µM) | 64 (≈ 104 µM) | 64 (≈ 104 µM) | 64 (≈ 104 µM) | 1 (≈ 1.63 µM) | 0.06 (≈ 0.0978 µM) | 0.06 (≈ 0.0978 µM) | >146.13 | >146.13 | > 14.6 | > 14.6 | 
CN(C)CCNC(=O)c1cccc(-c2ccc(O)c3c2C[C@H]2C[C@H]4CC(O)=C(C(N)=O)C(=O)[C@@]4(O)C(O)=C2C3=O)c1 [Z, (4aS,5aR,12aS)-7-[3-(2-Dimethylamino-ethylcarbamoyl)-phenyl]-3,10,12,12a-tetrahydroxy-1,11-dioxo-1,4,4a,5,5a,6,11,12a-octahydro-naphthacene-2-carboxylic acid amide] | 64 (≈ 114 µM) | 64 (≈ 114 µM) | 64 (≈ 114 µM) | 64 (≈ 114 µM) | 64 (≈ 114 µM) | 64 (≈ 114 µM) | 64 (≈ 114 µM) | >158.85 | >158.85 | > 15.9 | > 15.9 | 
